Values joined by “and” are separate entries in the source; they are usually repeats but may differ in a detail not shown here. Equal values may be shown once. Toxic doses and inconclusive results are not listed. How the source made its calls: active means survival T/C of 150% or more; inactive means T/C below 125% in these data.
Tested on: P388 leukemia ip, CD2F1 mice, survival T/C
Assay: NCI In Vivo Anticancer Drug Screen. Data for tumor model P388 Leukemia (intraperitoneal) in CD2F1 (CDF1) mice
Settings: endpoint: median survival time, higher = longer survival
Outline: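 Mice carrying the transplanted tumor received test compound or vehicle. Survival was recorded in each group, and the value is the treated-group measurement divided by that of the vehicle-treated control group.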

[1] = dose: 50.0 mg/kg/injection, schedule: Q01DX005 (ip), vehicle: saline
[2] = dose: 100.0 mg/kg/injection, schedule: Q01DX005 (ip), vehicle: saline
[3] = dose: 50.0 mg/kg/injection, schedule: Q01DX005 (ip), vehicle: Klucel (hydroxypropylcellulose) (HPC)
[4] = dose: 100.0 mg/kg/injection, schedule: Q01DX005 (ip), vehicle: Klucel (hydroxypropylcellulose) (HPC)
[5] = dose: 200.0 mg/kg/injection, schedule: Q01DX005 (ip), vehicle: Klucel (hydroxypropylcellulose) (HPC)
[6] = dose: 100.0 mg/kg/injection, schedule: Q01DX009 (ip), vehicle: saline with Tween-80
[7] = dose: 200.0 mg/kg/injection, schedule: Q01DX009 (ip), vehicle: saline with Tween-80
[8] = dose: 400.0 mg/kg/injection, schedule: Q01DX009 (ip), vehicle: saline with Tween-80
[9] = dose: 60.0 mg/kg/injection, schedule: Q01DX005 (ip), vehicle: saline
[10] = dose: 120.0 mg/kg/injection, schedule: Q01DX005 (ip), vehicle: saline
[11] = dose: 240.0 mg/kg/injection, schedule: Q01DX005 (ip), vehicle: saline
[12] = dose: 50.0 mg/kg/injection, schedule: Q01DX009 (ip), vehicle: saline with Tween-80
[13] = dose: 120.0 mg/kg/injection, schedule: Q01DX005 (ip), vehicle: saline with Tween-80
[14] = dose: 240.0 mg/kg/injection, schedule: Q01DX005 (ip), vehicle: saline with Tween-80
[15] = dose: 100.0 mg/kg/injection, schedule: Q01DX001 (ip), vehicle: saline with Tween-80
[16] = dose: 200.0 mg/kg/injection, schedule: Q01DX001 (ip), vehicle: saline with Tween-80

Measured: T/C

Nc1nc(N)c2c(Cl)c(CNc3ccc(Cl)c(Cl)c3)ccc2n1
inactive: dose: 0.18 mg/kg/injection, schedule: Q01DX009 (ip), vehicle: saline with Tween-80 97 % of control | dose: 0.37 mg/kg/injection, schedule: Q01DX009 (ip), vehicle: saline with Tween-80 102 % of control | dose: 0.75 mg/kg/injection, schedule: Q01DX009 (ip), vehicle: saline with Tween-80 99 % of control | dose: 1.5 mg/kg/injection, schedule: Q01DX009 (ip), vehicle: saline with Tween-80 99 % of control

COc1ccc(-c2c(N)cnc(C(=O)O)c2C)c(O)c1OC
inactive: dose: 12.5 mg/kg/injection, schedule: Q01DX009 (ip), vehicle: other 95 % of control | dose: 25.0 mg/kg/injection, schedule: Q01DX009 (ip), vehicle: other 104 % of control | dose: 50.0 mg/kg/injection, schedule: Q01DX009 (ip), vehicle: other 112 % of control | dose: 100.0 mg/kg/injection, schedule: Q01DX009 (ip), vehicle: other 95 % of control | dose: 200.0 mg/kg/injection, schedule: Q01DX009 (ip), vehicle: other 100 % of control

CC1CCCC2COCN12 (centres undefined)
inactive: dose: 12.5 mg/kg/injection, schedule: Q01DX005 (ip), vehicle: saline 105 % of control and 98 % of control | dose: 25.0 mg/kg/injection, schedule: Q01DX005 (ip), vehicle: saline 105 % of control and 106 % of control | [1] 101 % of control and 116 % of control and 118 % of control | [2] 123 % of control and 96 % of control | dose: 200.0 mg/kg/injection, schedule: Q01DX005 (ip), vehicle: saline 115 % of control

CC1(C)CC(N2CCOCC2)=CC(=S)N1
inactive: [3] 100 % of control | [4] 103 % of control | [5] 98 % of control

CN(C)CC(CN(C)C)C(=O)/C=C/c1ccc2c(c1)OCO2
inactive: dose: 0.78 mg/kg/injection, schedule: Q01DX005 (ip), vehicle: Klucel (hydroxypropylcellulose) (HPC) 112 % of control | dose: 1.56 mg/kg/injection, schedule: Q01DX005 (ip), vehicle: Klucel (hydroxypropylcellulose) (HPC) 104 % of control | dose: 3.12 mg/kg/injection, schedule: Q01DX005 (ip), vehicle: Klucel (hydroxypropylcellulose) (HPC) 104 % of control

Cc1cc2n(n1)C(C)(C)C(=O)Nc1ccc(Cl)cc1-2
inactive: dose: 60.0 mg/kg/injection, schedule: Q01DX005 (ip), vehicle: Klucel (hydroxypropylcellulose) (HPC) 96 % of control | dose: 120.0 mg/kg/injection, schedule: Q01DX005 (ip), vehicle: Klucel (hydroxypropylcellulose) (HPC) 96 % of control | dose: 240.0 mg/kg/injection, schedule: Q01DX005 (ip), vehicle: Klucel (hydroxypropylcellulose) (HPC) 93 % of control

NCCCNc1cc(O)cc2cccnc12
inactive: [1] 93 % of control | [2] 95 % of control

COc1c(N)c2c(c([N+](=O)[O-])c1OC)C(=O)OC2
inactive: [3] 103 % of control | [4] 93 % of control | [5] 97 % of control

Cc1ccc(S(=O)(=O)O/N=C(/C#N)c2ccccc2)cc1
inactive: dose: 50.0 mg/kg/injection, schedule: Q01DX009 (ip), vehicle: saline 101 % of control | [6] 102 % of control | dose: 100.0 mg/kg/injection, schedule: Q01DX009 (ip), vehicle: saline 99 % of control | [7] 101 % of control | dose: 200.0 mg/kg/injection, schedule: Q01DX009 (ip), vehicle: saline 105 % of control | [8] 97 % of control

CN(C)c1ccc(N=C2C=CC(=O)C(Cl)=C2)cc1
inactive: dose: 25.0 mg/kg/injection, schedule: Q01DX009 (ip), vehicle: suspension in saline 106 % of control | dose: 50.0 mg/kg/injection, schedule: Q01DX009 (ip), vehicle: suspension in saline 115 % of control

CC(C)=CCCC(=O)Cc1nc2nnc(N)n2nc1CC(=O)CCC=C(C)C
inactive: [9] 100 % of control | [10] 98 % of control | [11] 104 % of control

COc1ccc2c(c1OC)Oc1c(OC)ccc3c1C(C2)N(C)C[C@@H]3O (some centres undefined)
inactive: dose: 5.75 mg/kg/injection, schedule: Q01DX005 (ip), vehicle: Klucel (hydroxypropylcellulose) (HPC) 103 % of control | dose: 11.5 mg/kg/injection, schedule: Q01DX005 (ip), vehicle: Klucel (hydroxypropylcellulose) (HPC) 109 % of control | dose: 23.0 mg/kg/injection, schedule: Q01DX005 (ip), vehicle: Klucel (hydroxypropylcellulose) (HPC) 100 % of control | dose: 46.0 mg/kg/injection, schedule: Q01DX005 (ip), vehicle: Klucel (hydroxypropylcellulose) (HPC) 99 % of control

Cc1cc(-c2cc(C)nc(N)n2)nc(N)n1
inactive: [9] 100 % of control | [10] 100 % of control | [11] 108 % of control

CCCCCC(=O)C(=O)c1ccc(O)cc1O
inactive: dose: 50.0 mg/kg/injection, schedule: Q01DX009 (ip), vehicle: Klucel (hydroxypropylcellulose) (HPC) 89 % of control | dose: 100.0 mg/kg/injection, schedule: Q01DX009 (ip), vehicle: Klucel (hydroxypropylcellulose) (HPC) 109 % of control | dose: 200.0 mg/kg/injection, schedule: Q01DX009 (ip), vehicle: Klucel (hydroxypropylcellulose) (HPC) 100 % of control

C(CCC[Si]12OCCN(CCO1)CCO2)CC[Si]12OCCN(CCO1)CCO2
inactive: [3] 102 % of control | [4] 93 % of control | [5] 91 % of control

CCCCN(S(=O)(=O)c1ccc(C)cc1)S(=O)(=O)c1ccc(C)cc1
inactive: [6] 120 % of control | [7] 106 % of control | [8] 87 % of control

CCc1cnc2ccccc2c1/C=C/c1ccc(N(C)C)cc1
inactive: [12] 98 % of control | [6] 105 % of control | [7] 103 % of control

O=C1OCC/C1=C\c1ccco1
inactive: dose: 50.0 mg/kg/injection, schedule: Q01DX005 (ip), vehicle: acetone 119 % of control | dose: 100.0 mg/kg/injection, schedule: Q01DX005 (ip), vehicle: acetone 103 % of control

COC(=O)C1=C(C)NC(=S)NC1c1ccco1 (centres undefined)
inactive: dose: 100.0 mg/kg/injection, schedule: Q04DX003 (ip), vehicle: saline with Tween-80 95 % of control | dose: 200.0 mg/kg/injection, schedule: Q04DX003 (ip), vehicle: saline with Tween-80 95 % of control | dose: 400.0 mg/kg/injection, schedule: Q04DX003 (ip), vehicle: saline with Tween-80 100 % of control

CCO/C=C1/N=C(c2ccc(OC)cc2OC)OC1=O
inactive: dose: 60.0 mg/kg/injection, schedule: Q01DX005 (ip), vehicle: saline with Tween-80 95 % of control | [13] 104 % of control | [14] 106 % of control

O=C1C=CC(=O)[C@H]2CC=C3OC4OC5(CCCCC5)OC4[C@H]3[C@@H]12 (some centres undefined)
inactive: [13] 94 % of control | [14] 97 % of control

CCN(CC)CCCC(C)NCC(O)c1cc(-c2ccc(Cl)cc2)nc2ccccc12 (centres undefined)
inactive: dose: 50.0 mg/kg/injection, schedule: Q01DX005 (ip), vehicle: saline with Tween-80 107 % of control | dose: 100.0 mg/kg/injection, schedule: Q01DX005 (ip), vehicle: saline with Tween-80 112 % of control

CC(C)NCC(O)COc1ccc(OCc2ccccc2)c(OCc2ccccc2)c1 (centres undefined)
inactive: [12] 100 % of control

Nc1cccc2cccc([N+](=O)[O-])c12
inactive: dose: 25.0 mg/kg/injection, schedule: Q01DX001 (ip), vehicle: saline with Tween-80 97 % of control | dose: 50.0 mg/kg/injection, schedule: Q01DX001 (ip), vehicle: saline with Tween-80 110 % of control | [15] 99 % of control | [16] 98 % of control

COc1cc(C)c(/C(=N/O)n2nnc(-c3ccc(Cl)cc3)n2)c(C)c1
inactive: [15] 123 % of control | [16] 114 % of control | dose: 400.0 mg/kg/injection, schedule: Q01DX001 (ip), vehicle: saline with Tween-80 95 % of control

O=C(NO)C1(Br)CCCCC1Br (centres undefined)
inactive: dose: 100.0 mg/kg/injection, schedule: Q01DX001 (ip), vehicle: Klucel (hydroxypropylcellulose) (HPC) 91 % of control

C[C@]12CC(=O)[C@@H](C[C@H]1OC(=O)c1ccccc1)[C@@]21CO1
inactive: dose: 2.0 mg/kg/injection, schedule: Q04DX002 (ip), vehicle: distilled water + Tween-80 102 % of control | dose: 4.0 mg/kg/injection, schedule: Q04DX002 (ip), vehicle: distilled water + Tween-80 97 % of control | dose: 8.0 mg/kg/injection, schedule: Q04DX002 (ip), vehicle: distilled water + Tween-80 100 % of control | dose: 16.0 mg/kg/injection, schedule: Q04DX002 (ip), vehicle: distilled water + Tween-80 106 % of control | dose: 32.0 mg/kg/injection, schedule: Q04DX002 (ip), vehicle: distilled water + Tween-80 99 % of control

Source: PubChem BioAssay AID330 (DTP/NCI, 2004)
